Columns and labels:
adenosine A1 receptor = assay: Adenosine-induced bronchoconstriction (PC50 Adenosine) in allergic rabbits; type: in vivo
Procedure: A fortuitous hoology between the rabbit and human DNA sequences within the adenosine A1 gene overlapping the initiation codon permitted the use of the phosphorothioate anti-sense oligonucleotides initially designed for use against the human adenosine A1 receptor in a rabbit model. Neonatal New Zealand white Pasteurella-free rabbits were immunized intraperitoneally within 24 hours of birth with 312 antigen units/ml house dust mite (D. farinae) extract (Berkeley Biologicals, Berkeley, Calif.), mixed with 10% kaolin. Immunizations were repeated weekly for the first month and then biweekly for the next 2 months. At 3-4 months of age, eight sensitized rabbits were anesthetized and relaxed with a mixture of ketamine hydrochloride (44 mg/kg) and acepromazine maleate (0.4 mg/kg) administered intramuscularly. The rabbits were then laid supine in a comfortable position on a small molded, padded animal board and intubated with a 4.0-mm intratracheal tube (Mallinkrodt, Inc., Glens Falls, N.Y.). A polyethylene catheter of external diameter 2.4 mm with an attached latex balloon was passed into the esophagus and maintained at the same distance (approximately 16 cm) from the mouth throughout the experiments. The intratracheal tube was attached to a heated Fleisch pneumotachograph (size 00; DOM Medical, Richmond, Va.), and flow was measured using a Validyne differential pressure transducer (Model DP-45161927; Validyne Engineering Corp., Northridge, Calif.) driven by a Gould carrier amplifier (Model 11-4113; Gould Electronic, Cleveland, Ohio). The esophageal balloon was attached to one side of the differential pressure transducer, and the outflow of the intratracheal tube was connected to the opposite side of the pressure transducer to allow recording of transpulmonary pressure. Flow was integrated to give a continuous tidal volume, and measurements of total lung resistance (RL) and dynamic compliance (Cdyn) were calculated at isovolumetric and flow zero points, respectively, using an automated respiratory analyzer (Model 6; Buxco, Sharon, Conn.). Animals were randomized and on Day 1 pretreatment values for PC50 were obtained for aerosolized adenosine. Anti-sense (HAdA1AS) or mismatched control (HAdA1MM) oligonucleotides were dissolved in sterile physiological saline at a concentration of 5000 μg (5 mg) per 1.0 ml. […] Aerosols of either saline, adenosine, or anti-sense or mismatch oligonucleotides were generated by an ultrasonic nebulizer (DeVilbiss, Somerset, Pa.), producing aerosol droplets 80% of which were smaller than 5:m in diameter. In the first arm of the experiment, four randomly selected allergic rabbits were administered anti-sense oligonucleotide and four the mismatched control oligonucleotide. On the morning of the third day, PC50 values (the concentration of aerosolized adenosine in mg/ml required to reduce the dynamic compliance of the bronchial airway 50% from the baseline value) were obtained and compared to PC50 values obtained for these animals prior to exposure to oligonucleotide. Following a 1 week interval, animals were crossed over, with those previously administered mismatch control oligonucleotide now administered anti-sense oligonucleotide, and those previously treated with anti-sense oligonucleotide now administered mismatch control oligonucleotide. Treatment methods and measurements were identical to those employed in the first arm of the experiment. […] For the purpose of calculation, PC50 values for these animals were set at 20 mg/ml. The values given therefore represent a minimum figure for anti-sense effectiveness. Actual effectiveness was higher.
Aerosols of either adenosine (0-20 mglnml), or anti-sense or one of two mismatch oligonucleotides (5 mg/ml) were separately prepared with an ultrasonic nebulizer (Model 646, DeVilbiss, Somerset, Pa.), which produced aerosol droplets, 80% of which were smaller than 5:m in diameter. […]

adenosine A2 receptors = assay: Adenosine A2 receptor binding ([3H]CGS-21680) in airway smooth muscle membranes of treated rabbits; set-up: species or system rabbit; conditions: airway smooth muscle membranes after cross-over experiment; mean (n = 8) ± SEM
From the text: At the conclusion of the cross-over experiment of Example 3 above, airway smooth muscle from all rabbits was quantitatively analyzed for adenosine A1 receptor number. As a control for the specificity of the anti-sense oligonucleotide, adenosine A2 receptors, which should not have been affected, were also quantified. Airway smooth muscle tissue was dissected from each rabbit and a membrane fraction prepared according to the method of Kleinstein et al. (Kleinstein, J. and Glossrnann, H., Naunyn-Schrniedeberg's Arch Pharmacol. 305: 191-200 (1978)), the relevant portion of which is hereby incorporated in its entirety by reference, with slight modifications. Crude plasma membrane preparations were stored at −70 EC until the time of assay. Protein content was determined by the method of Bradford (M. Bradford, Anal. Biochem. 72, 240-254 (1976), the relevant portion of which is hereby incorporated in its entirety by reference). Frozen plasma membranes were thawed at room temperature and were incubated with 0.2 U/ml adenosine deaminase for 30 minutes at 37 EC to remove endogenous adenosine. The binding of [^3H] […] CGS-21680 ([…]) was measured as previously described by Ali et al. (Ali, S. et al., J. Pharmacol. Exp. Ther. 268, Ara. J. Physiol 266, L271-277 (1994), the relevant portion of which is hereby incorporated in its entirety by reference). […]

5′-GTAGCAGGCGGGGATGGGGGC-3′ [HAdA1MM1, reference compound]
effect on PC50 Adenosine value (adenosine A1 receptor; allergic rabbits, cross-over experiment, 20 mg total aerosolized oligo): No effect
PC50 Post Oligonucleotide (adenosine A1 receptor; asthmatic rabbits, approx. 5 mg aerosolized oligo twice daily for two days, third day, non-responders set at 20 mg/ml, mean (n = 8) ± SEM): 5.16 ± 1.03 mg/mL
PC50 Pre Oligonucleotide (adenosine A1 receptor; asthmatic rabbits, baseline before oligonucleotide, aerosolized adenosine reducing dynamic compliance 50%, mean (n = 8) ± SEM): 3.56 ± 1.02 mg/mL
toxicity (adenosine A1 receptor; rabbits receiving inhaled oligonucleotide): No toxicity was observed
A2-Specific Binding (adenosine A2 receptors): 302 ± 22

From patent publication US20070021360A1, “Compositions, formulations and kit with anti-sense oligonucleotide and anti-inflammatory steroid and/or obiquinone for treatment of respiratory and lung disesase” (priority 2001, published 2007)
